Measurements taken from ChEMBL document CHEMBL3046645, “Novel 1,3-diarylpyrazole acrylamides: synthesis, antiplatelet activity screening, and in silico evaluation studies” (Med Chem Res, 2013).
pIC50: −log10 of the molar value. Calls of active or inactive are those of the source. The rule behind the calls is not given here.

Assays:
Format in all cases: functional
[1] = test system: Platelet; test: Antiplatelet activity in human platelet-rich plasma assessed as inhibition of arachidonic acid-induced aggregation at 100 uM incubated for 5 mins prior to arachidonic acid-challenge measured for 3 mins by turbidrometric analysis relative to control
[2] = test system: Platelet; test: (§1) Antiplatelet activity in human platelet-rich plasma assessed as inhibition of collagen-induced aggregation at 100 uM incubated for 5 mins prior to collagen-challenge measured for 3 mins by turbidrometric analysis relative to control
[3] = as §1
[4] = Antiplatelet activity in human platelet-rich plasma assessed as inhibition of arachidonic acid-induced aggregation incubated for 5 mins prior to arachidonic acid-challenge measured for 3 mins by turbidrometric analysis

In the case of `COc1ccccc1N1CCN(C(=O)/C=C/c2cn(-c3ccccc3)nc2-c2ccncc2)CC1`, the inhibition [1] was “inactive” and the inhibition [2] was “inactive”.
In the case of `CCOc1ccccc1N1CCN(C(=O)/C=C/c2cn(-c3ccccc3)nc2-c2ccncc2)CC1`, the inhibition [1] was “inactive” and the inhibition at 100 µM [3] was 42%.
With `COc1ccc(N2CCN(C(=O)/C=C/c3cn(-c4ccccc4)nc3-c3ccncc3)CC2)c(OC)c1OC` the inhibition [1] was “inactive” and the inhibition [2] was “inactive”.
Molecule `O=C(/C=C/c1cn(-c2ccccc2)nc1-c1ccncc1)NCc1ccccc1` has a pIC50 [4] of 4.69 and an inhibition at 100 µM [3] of 54.9%.
With `O=C(/C=C/c1cn(-c2ccccc2)nc1-c1ccncc1)NC1CC1` the inhibition [1] was “inactive” and the inhibition [2] was “inactive”.
In the case of `Cc1cccc(N2CCN(C(=O)/C=C/c3cn(-c4ccccc4)nc3-c3ccncc3)CC2)c1C`, the inhibition [1] was “inactive” and the inhibition [2] was “inactive”.
With `O=C(/C=C/c1cn(-c2ccccc2)nc1-c1ccncc1)N1CCOCC1` the inhibition [1] was “Active”.
With `O=C(/C=C/c1cn(-c2ccccc2)nc1-c1ccncc1)N1CCN(C(=O)c2ccco2)CC1` the inhibition [1] was “inactive” and the inhibition at 100 µM [3] was 50%.
For `O=C(/C=C/c1cn(-c2ccccc2)nc1-c1ccncc1)N1CCN(CCOCCO)CC1`, the inhibition [1] was “inactive” and the inhibition [2] was “inactive”.
In the case of `O=C(/C=C/c1cn(-c2ccccc2)nc1-c1ccncc1)N1CCN(c2ccc(C(F)(F)F)cc2)CC1`, the inhibition [1] was “inactive” and the inhibition at 100 µM [3] was 25%.
In the case of `O=C(/C=C/c1cn(-c2ccccc2)nc1-c1ccncc1)N1CCN(c2ncccn2)CC1`, the inhibition [1] was “inactive” and the inhibition at 100 µM [3] was 73.1%.
In the case of `COc1ccc(CNC(=O)/C=C/c2cn(-c3ccccc3)nc2-c2ccncc2)cc1`, the inhibition [1] was “inactive” and the inhibition [2] was “inactive”.
For `O=C(O)/C=C/c1cn(-c2ccccc2)nc1-c1ccncc1`, the inhibition [1] was “inactive” and the inhibition [2] was “inactive”.
In the case of `O=C(/C=C/c1cn(-c2ccccc2)nc1-c1ccncc1)N1CCN(c2ccncc2)CC1`, the inhibition [1] was “inactive” and the inhibition at 100 µM [3] was 82.5%.
In the case of `O=C(/C=C/c1cn(-c2ccccc2)nc1-c1ccncc1)N1CCN(C(=O)C2CCCO2)CC1` (stereo not drawn), the inhibition [1] was “inactive” and the inhibition at 100 µM [3] was 68.9%.
In the case of `O=C(/C=C/c1cn(-c2ccccc2)nc1-c1ccncc1)N1CCCCC1`, the inhibition [1] was “Active”.
`O=C(/C=C/c1cn(-c2ccccc2)nc1-c1ccncc1)NC1CCCCC1` gave a pIC50 [4] of 4.52 and an inhibition at 100 µM [3] of 71.8%.
For `O=C(/C=C/c1cn(-c2ccccc2)nc1-c1ccncc1)N1CCN(c2ccc(Cl)cc2)CC1`, the inhibition [1] was “inactive” and the inhibition [2] was “inactive”.
With `CC(=O)Oc1ccccc1C(=O)O` [ASPIRIN] the pIC50 [4] was 5.11.
With `O=C(/C=C/c1cn(-c2ccccc2)nc1-c1ccncc1)N1CCN(c2cccc(Cl)c2)CC1` the inhibition [1] was “inactive” and the inhibition [2] was “inactive”.
With `Cc1ccc(N2CCN(C(=O)/C=C/c3cn(-c4ccccc4)nc3-c3ccncc3)CC2)cc1` the inhibition [1] was “inactive” and the inhibition [2] was “inactive”.
With `O=C(/C=C/c1cn(-c2ccccc2)nc1-c1ccncc1)N1CCC(Cc2ccccc2)CC1` the inhibition [1] was “inactive” and the inhibition [2] was “inactive”.
In the case of `O=C(/C=C/c1cn(-c2ccccc2)nc1-c1ccncc1)N1CCN(c2ccccc2)CC1`, the inhibition [1] was “inactive” and the inhibition [2] was “inactive”.
